Reference: patent publication US4124577A, “Nonapeptides and methods for their production” (Warner-Lambert, priority 1977, dated 1978)

Tested on: LRF (luteinizing hormone releasing factor) induced luteinizing hormone (LH) release
Assay: In vitro LRF antagonist test in rat anterior pituitary cell cultures
Format: cell-based
Text: Nonapeptides of this invention were screened for LRF antagonist activity in vitro using rat anterior pituitary cell cultures as described by Vale et. al. [Endocrinology, 91, 562 (1972)]. The inhibition of LRF (luteinizing hormone releasing factor) induced luteinizing hormone (LH) release into the culture medium is the endpoint in this in vitro bioassay.

LRF: luteinizing hormone releasing factor, formed in the hypothalamus, stimulates the secretion of luteinizing hormone from the anterior pituitary (QHWSYGLRPG; Gonadoliberin-1; UniProt P01148 24-33, looked up) [reference compound]
LH released into culture medium (LRF alone, molar conc. 5×10^-10 (saline control 16.22)): 80.93 ng/mL

N^α -t-butoxycarbonyl-N^im -benzyl-L-histidyl-L-tryptophyl-O-benzyl-L-seryl-O-benzyl-L-tyrosyl-D-phenylalanyl-L-leucyl-N^G -[(4-methylphenyl)sulfonyl]-L-arginyl-L-prolyl-glycinamide
LH released into culture medium (compound molar conc. 1×10^-7, LH released into culture medium, LRF control 5×10^-10): 24.91 ng/mL | % LH Release Inhibition (compound molar conc. 1×10^-7, LRF control 5×10^-10): 87% | LH released into culture medium (compound molar conc. 1×10^-8, LH released into culture medium, LRF control 5×10^-10): 52.47 ng/mL | % LH Release Inhibition (compound molar conc. 1×10^-8, LRF control 5×10^-10): 44%
